According to patent US20250163057A1, “DCN-1 MODULATING COMPOUNDS AND METHODS OF USE THEREOF” (Cellarity, Inc., priority 2023, published 2025):

Experiments:
[1] = system: Cullin-3 (CUL3) neddylation; assay: AlphaLISA assay for Cullin-3 (CUL3) neddylation in TF 1 cells; format: cell-based; conditions: 3 hours treatment
In short: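 Neddylated CUL3 was quantified by AlphaLISA in lysates of TF 1 cells exposed for 3 h to test compound in IMDM without supplements. Percent inhibition set between vehicle and 1 μM DI-1548 positive control; IC50 derived by Hill-equation fitting of dose-response curves.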

[2] = system: fetal hemoglobin gene HBG1; assay: HBG1 Nanostring Assay in CD34+ HSPC erythroid differentiation culture; format: cell-based, human; conditions: for Nanostring Ymax obs (%): relative to a control compound (C1); for EC50: HBG1 induction, Day10 of erythroid differentiation
In short: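 HBG1 counts came from direct nCounter hybridization (67° C, 22 h) of day-10 lysates, normalized to ERCC positive controls and a housekeeping gene, giving EC50 and Ymax versus a reference compound. Compounds in 0.1% DMSO were present from day −2 while cells underwent EPO/SCF/IL-3 erythroid differentiation, with IL-3 dropped at day 7, at 37° C.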

| SMILES | IC50 ([1]; Homo sapiens, TF-1, 3 h) [nM] | Nanostring Ymax obs (%) [2] | IC50 [1] [nM] | EC50 [2] [nM] | EC50 ([2]; Homo sapiens, 240 h) [nM] |
| --- | --- | --- | --- | --- | --- |
| C=C(CN1CCC1)C(=O)NCc1nn(-c2ccccc2)c2c1[C@H](c1ccc(F)cc1)[C@H](NC(=O)c1cccc(C(F)(F)F)c1)C(=O)N2CC (racemic) [Compound I-49, rac-N-((4R,5R)-3-((2-(azetidin-1-ylmethyl)acrylamido)methyl)-7-ethyl-4-(4-fluorophenyl)-6-oxo-1-phenyl-4,5,6,7-tetrahydro-1H-pyrazolo[3,4-b]pyridin-5-yl)-3-(trifluoromethyl)benzamide] | ≤ 100 | ++ (Nanostring Ymax greater than 50.0 and less than or equal to 100.0) | – | – | – |
| CCN1C(=O)[C@@H](NC(=O)c2cccc(C(F)(F)F)c2)[C@@H](c2ccc(F)cc2)c2c(C(=O)N3CCC[C@H]3C#N)nn(C3CCOCC3)c21 [Compound I-350] | – | +++ (Nanostring Ymax greater than 100.0) | ≤ 100 | ≤ 100 | – |
| CCN1C(=O)[C@@H](NC(=O)c2cccc(C(F)(F)F)c2)[C@@H](c2ccc(F)cc2)c2c(NC(=O)C3=CCC3)nn(-c3ccccc3)c21 (racemic) [Compound I-152] | 100 to 1000 | +++ (Nanostring Ymax greater than 100.0) | – | – | 100 to 1000 |
| CCN1C(=O)[C@@H](NC(=O)c2cccc(C(F)(F)F)c2)[C@@H](c2ccc(F)cc2)c2c(C(=O)N3CCNC[C@H]3C#N)nn(C3CCOCC3)c21 [Compound I-363, N-((4S,5S)-3-((S)-2-cyanopiperazine-1-carbonyl)-7-ethyl-4-(4-fluorophenyl)-6-oxo-1-(tetrahydro-2H-pyran-4-yl)-4,5,6,7-tetrahydro-1H-pyrazolo[3,4-b]pyridin-5-yl)-3-(trifluoromethyl)benzamide] | ≤ 100 | +++ (Nanostring Ymax greater than 100.0) | – | – | ≤ 100 |
| CCc1cccc(C(=O)N[C@@H]2C(=O)N(CC)c3c(c(C(=O)N4[C@H](C#N)C[C@H]5C[C@H]54)nn3C3CCOCC3)[C@@H]2C2CC2)c1 [Compound I-552, N-((4S,5S)-3-((1R,3S,5R)-3-cyano-2-azabicyclo[3.1.0]hexane-2-carbonyl)-4-cyclopropyl-7-ethyl-6-oxo-1-(tetrahydro-2H-pyran-4-yl)-4,5,6,7-tetrahydro-1H-pyrazolo[3,4-b]pyridin-5-yl)-3-ethylbenzamide] | ≤ 100 | +++ (Nanostring Ymax greater than 100.0) | – | – | ≤ 100 |
| CCN1C(=O)[C@@H](NC(=O)c2cccc(C(F)(F)F)c2)[C@@H](c2ccc(F)cc2)c2c(CN(C)C#N)nn(-c3ccccc3)c21 [Compound I-92] | 100 to 1000 | ++ (Nanostring Ymax greater than 50.0 and less than or equal to 100.0) | – | 100 to 1000 | – |
| CCN1C(=O)[C@@H](NC(=O)c2cccc(C(F)(F)F)c2)[C@@H](c2ccc(F)cc2)c2c(C(=O)N3CCC[C@H]3C#N)nn(-c3ccccc3)c21 [Compound I-278] | ≤ 100 | +++ (Nanostring Ymax greater than 100.0) | – | – | ≤ 100 |
| CCN1C(=O)[C@@H](NC(=O)c2cccc(C(F)(F)F)c2)[C@@H](c2ccc(F)cc2)c2c(C(=O)N(C)[C@@H](C#N)CCN(C)C)nn(C3CCOCC3)c21 [Compound I-369] | ≤ 100 | +++ (Nanostring Ymax greater than 100.0) | – | – | ≤ 100 |
| CCN1C(=O)[C@@H](NC(=O)c2cccc(C(F)(F)F)c2)[C@@H](c2ccc(F)cc2)c2c(C(=O)N3CCC[C@H]3C#N)nn(-c3ccccc3)c21 (mixture of isomers) [Compound I-34] | – | ++ (Nanostring Ymax greater than 50.0 and less than or equal to 100.0) | – | – | – |
